Reference: patent publication US20240041976A1, “COMPOSITION AND USE” (priority 2020, published 2024)
Where two headings read alike, the source gives them in different places.

Columns and labels:
Type in all cases: cell-based, Staphylococcus aureus
[1] = tested on: S. aureus USA 300 biofilm; test: Biofilm-oriented antimicrobial test (BOAT), MIC50 in biofilms
Experimental: (§1) Synergistic interactions between antimicrobials were determined using the fractional inhibition concentration (FIC). The FIC values were calculated as follows: the sum of the FIC =FICa+FICb+FICc, where the FICa means MIC of A in combination/MIC of A alone, FICb means MIC of B in combination/MIC of B, and FICc means MIC of C in combination/MIC of C alone. Effects were considered as synergistic if FIC was ≤0.5 for two components mixture and ≤0.75 for three components mixture.
(§2) Staphylococcus aureus strains were inoculated in 5 ml of TSB and incubated O/N at 37° C. Ten μl of the O/N cultures were then inoculated in 90 μl of TSB supplemented with 1% glucose and 1% NaCl (TSB-GN) in the appropriate wells of a 96-well microtiter plate (Sarstedt) to a final volume of 100 μl. The plates were then incubated at 37° C. for 24 h. After the incubation, the presence of the biofilm at the bottom of the wells was assessed visually.
(§3) The BOAT assay was performed as described previously (Gronseth et al., 2017, Int. J. Pediatr. Otorhinolaryngol., Vol. 103, p 58-64) with some modifications. The serial dilutions of the antimicrobials were prepared in challenge plates as follows: 175 μl of TSB were transferred in each row of a 96-well microtiter plate, except for the first row, according to the number of microbial strains to treat. In the first row of the plate, the antimicrobials were diluted to their respective working concentrations in a final volume of 350 μl of TSB. From the first row, 175 μl of the antimicrobial dilutions were then transferred to the second row of the plate and further serially diluted to the bottom of the plate. The same procedure was followed to prepare the controls, except that instead of the antimicrobials an equivalent volume of the respective vehicles were used. The biofilms were allowed to form for 24 h and then washed twice with 100 μl of sterile saline buffer and a total of 150 μl of the antimicrobial and control dilutions were transferred from the challenge plate to the corresponding wells of the biofilm plate. The challenged biofilms were then incubated for an additional 24 h at 37° C. After the challenge period, the antimicrobial dilutions were removed and the biofilms were carefully washed three times with 150 μl of sterile saline buffer. A total of 100 μl of TSB supplemented with 0.025% of triphenyl-tetrazolium chloride (TTC, Sigma) were then added to each well of the plate and further incubated at 37° C. for 5h. The results were then assessed by monitoring the development (or not) of red formazan (red colour), denoting the retention of metabolic activity by bacterial cells (Moussa et al., 2013, J. Mycol., Vol. 2013; Perez et al., 2010, Lett. Appl. Microbiol., Vol. 51, p 331-337). The medium was then removed and 200 μl of an ethanol:acetone (70:30) mixture was added to the wells and incubated O/N in order to extract the red formazan. The amount of extracted dye, reflecting the degree of bacterial cell metabolic activity, was then quantified by spectrophotometric readings at 492 nm.

S. aureus Newman biofilm = test: as above; settings: for MIC50: individual component
Experimental: as §1, §2, §3

[2] = tested on: S. aureus ATTC 33591 biofilm; test: as above; settings: for MIC50 of the component in combination / MIC50: ATTC 33591, biofilm; for MIC50: individual component
Experimental: as §1, §2, §3

S.a. 3255 biofilm = test: as above; settings: for MIC50: individual component
Experimental: as §1, §2, §3

[3] = tested on: S. aureus ATTC 29213 biofilm; test: as above; settings: for MIC50: individual component
Experimental: as §1, §2, §3

S. aureus LMG3026 = test: AAMP assay (MIC), single components and formulation mixture; settings: for MIC: Staphylococcus aureus, LMG3026, 24 h, read-out: MIC, single component
How it was run: (§4)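 Single agents and a combined well of PenG 100 μg, GarKS 50 μg and MP1 2.5 μg tested side by side on one microtiter plate; MIC by AAMP protocol; FIC calculated to define synergy.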

S. aureus LMG3263 = test: as above; settings: for MIC: Staphylococcus aureus, LMG3263, 24 h, read-out: MIC, single component
How it was run: as §4

S. aureus LMG3314 = test: as above; settings: for MIC: Staphylococcus aureus, LMG3314, 24 h, read-out: MIC, single component
How it was run: as §4

S. aureus LMG3307 = test: as above; settings: for MIC: Staphylococcus aureus, LMG3307, 24 h, read-out: MIC, single component
How it was run: as §4

S. aureus LMG3328 = test: as above; settings: for MIC: Staphylococcus aureus, LMG3328, 24 h, read-out: MIC, single component
How it was run: as §4

S. aureus LMG3266 = test: as above; settings: for MIC: Staphylococcus aureus, LMG3266, 24 h, read-out: MIC, single component
How it was run: as §4

S. aureus LMG3258 = test: as above; settings: for MIC: Staphylococcus aureus, LMG3258, 24 h, read-out: MIC, single component
How it was run: as §4

S. aureus LMG3322 = test: as above; settings: for MIC: Staphylococcus aureus, LMG3322, 24 h, read-out: MIC, single component
How it was run: as §4

S. aureus LMG3265 = test: as above; settings: for MIC: Staphylococcus aureus, LMG3265, 24 h, read-out: MIC, single component
How it was run: as §4

[4] = Staphylococcus aureus, USA300, individual component, read-out: MIC50
[5] = garvicin KS + micrococcin P1 + penicillin G
[6] = Staphylococcus aureus, read-out: MIC50
[7] = Staphylococcus aureus, ATTC33591BIOFILM, read-out: MIC50
[8] = Staphylococcus aureus, ATTC29213BIOFILM, read-out: MIC50

| Molecule | MIC50 [1, 4] [µg/mL] | MIC50 of the component in combination [1, 5] [µg/mL] | MIC50 of the component in combination ([1]; garvicin KS + penicillin G) [µg/mL] | MIC50 (S. aureus Newman biofilm; [6]) [µg/mL] | MIC50 of the component in combination (S. aureus Newman biofilm; [5]) [µg/mL] | MIC50 of the component in combination (S. aureus Newman biofilm; garvicin KS + penicillin G) [µg/mL] | MIC50 of the component in combination [2, 5] [µg/mL] | MIC50 of the component in combination ([2]; garvicin KS + penicillin G) [µg/mL] | MIC50 [2, 7] [µg/mL] | MIC50 (S.a. 3255 biofilm; [6]) [µg/mL] | MIC50 of the component in combination (S.a. 3255 biofilm; [5]) [mg/mL] | MIC50 of the component in combination (S.a. 3255 biofilm; garvicin KS + penicillin G) [mg/mL] | MIC50 [3, 8] [µg/mL] | MIC50 of the component in combination [3, 5] [µg/mL] | MIC50 of the component in combination ([3]; garvicin KS + penicillin G) [µg/mL] | MIC (S. aureus LMG3026) [µg/mL] | MIC (S. aureus LMG3263) [µg/mL] | MIC (S. aureus LMG3314) [µg/mL] | MIC (S. aureus LMG3307) [µg/mL] | MIC (S. aureus LMG3328) [µg/mL] | also measured |
| --- | --- | --- | --- | --- | --- | --- | --- | --- | --- | --- | --- | --- | --- | --- | --- | --- | --- | --- | --- | --- | --- |
| CC1(C)S[C@@H]2[C@H](NC(=O)Cc3ccccc3)C(=O)N2[C@H]1C(=O)O [Penicillin G] | > 10000 | 10000 | >10000 | 10000 | 2500 | 1300 | 10000 | >10000 | > 10000 | 10000 | 0.63 | 0.63 | 10000 | 630 | 2500 | > 2500 | 125 | < 0.24 | < 0.24 | < 0.24 | MIC (S. aureus LMG3266): 64 µg/mL; MIC (S. aureus LMG3258): 64 µg/mL; MIC (S. aureus LMG3322): < 0.24 µg/mL; MIC (S. aureus LMG3265): 125 µg/mL |
| C/C=C(\NC(=O)c1csc(-c2csc(-c3ccc4c(n3)-c3csc(n3)[C@H]([C@@H](C)O)NC(=O)c3csc(n3)[C@H](C(C)C)NC(=O)c3csc(n3)/C(=C/C)NC(=O)[C@H]([C@@H](C)O)NC(=O)c3csc-4n3)n2)n1)C(=O)NC[C@@H](C)O [MP1, micrococcin P1] | > 100 | 100 |  | > 100 | 25 |  | 100 |  | > 100 | > 100 | 0.0063 |  | > 100 | 6.3 |  | > 1.8 | 1.8 | 0.4 | 0.9 | 0.9 | MIC50 of the component in combination ([1]; garvicin KS + micrococcin P1): 100 µg/mL; MIC50 of the component in combination (S. aureus Newman biofilm; garvicin KS + micrococcin P1): 25 µg/mL; MIC50 of the component in combination ([2]; garvicin KS + micrococcin P1): >100 µg/mL; MIC50 of the component in combination (S.a. 3255 biofilm; garvicin KS + micrococcin P1): 2.5 × 10^−2. mg/ml; MIC50 of the component in combination ([3]; garvicin KS + micrococcin P1): 25 µg/mL; MIC (S. aureus LMG3266): > 1.8 µg/mL; MIC (S. aureus LMG3258): 1.8 µg/mL; MIC (S. aureus LMG3322): > 1.8 µg/mL; MIC (S. aureus LMG3265): 1.8 µg/mL |
| Garvicin KS: three-peptide leaderless bacteriocin (GarA, GarB, GarC; SEQ ID NO:6-8), peptides synthesized (peptide, listed as Lactococcus garvieae) chain 1: MGAIIKAGAKIVGKGVLGGGASWLGWNVGEKIWK chain 2: MGAIIKAGAKIIGKGLLGGAAGGATYGGLKKIFG chain 3: MGAIIKAGAKIVGKGALTGGGVWLAEKLFGGK |  | 5000 | >5000 |  | 1250 | 630 | 5000 | >5000 |  |  | 0.31 | 0.31 |  | 310 | 1250 |  |  |  |  |  | MIC50 of the component in combination ([1]; garvicin KS + micrococcin P1): 5000 µg/mL; MIC50 ([1]; individual component): 2500 µg/mL; MIC50 of the component in combination (S. aureus Newman biofilm; garvicin KS + micrococcin P1): 1250 µg/mL; MIC50 (S. aureus Newman biofilm): 1250 µg/mL; MIC increase compared to the planktonic state ([2]; ATCC 33591 biofilm): over 100 fold; MIC50 of the component in combination ([2]; garvicin KS + micrococcin P1): >5000 µg/mL; MIC50 [2]: >5000 µg/mL; MIC50 of the component in combination (S.a. 3255 biofilm; garvicin KS + micrococcin P1): 3.1 × 10^−1. mg/ml; MIC50 (S.a. 3255 biofilm): 1250 µg/mL; MIC50 of the component in combination ([3]; garvicin KS + micrococcin P1): 1250 µg/mL; MIC50 [3]: 1250 µg/mL; MIC, single component (S. aureus LMG3026; LMG3026): 16 µg/mL; MIC, single component (S. aureus LMG3263; LMG3263): 16 µg/mL; MIC, single component (S. aureus LMG3314; LMG3314): 32 µg/mL; MIC, single component (S. aureus LMG3307; LMG3307): 32 µg/mL; MIC, single component (S. aureus LMG3328; LMG3328): 32 µg/mL; MIC, single component (S. aureus LMG3266; LMG3266): 32 µg/mL; MIC, single component (S. aureus LMG3258; LMG3258): 32 µg/mL; MIC, single component (S. aureus LMG3322; LMG3322): 16 µg/mL; MIC, single component (S. aureus LMG3265; LMG3265): 16 µg/mL |
